Test results as given in patent publication US8507724B2 (priority 2008, dated 2013).

Target: T1, α1 homomeric glycine receptors (Rattus norvegicus, UniProt P07727)
T1 construct: expressed in transfected cells; host or cells: HEK 293 (transient transfection by electroporation, cDNA in pCIS2 vector)
T1 sequence (P07727 29-457): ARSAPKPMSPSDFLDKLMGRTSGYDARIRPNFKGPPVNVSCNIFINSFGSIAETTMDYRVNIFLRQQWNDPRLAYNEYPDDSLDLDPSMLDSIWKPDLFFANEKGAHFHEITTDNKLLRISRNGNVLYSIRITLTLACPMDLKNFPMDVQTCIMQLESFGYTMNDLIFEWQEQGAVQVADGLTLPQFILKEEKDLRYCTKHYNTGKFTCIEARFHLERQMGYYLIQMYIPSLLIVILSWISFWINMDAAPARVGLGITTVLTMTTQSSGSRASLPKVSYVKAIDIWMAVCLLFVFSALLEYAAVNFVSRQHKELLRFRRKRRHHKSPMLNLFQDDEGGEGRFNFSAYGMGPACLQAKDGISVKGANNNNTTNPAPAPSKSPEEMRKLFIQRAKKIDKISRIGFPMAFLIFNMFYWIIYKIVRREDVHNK
Assay: Whole-cell patch-clamp, Cl- current activated via α1 homomeric glycine receptors in transfected HEK 293 cells
Format: cell-based
Description: Cells were cultured in Dulbecco's modified Eagle's medium (DMEM, Biochrom, Berlin, Germany), supplemented with 10% fetal calf serum (FCS, Biochrom, Berlin, Germany), 100 U ml^−1 penicillin and 100 μg ml^−1 streptomycin at 37° C. in a 5% CO2/air incubator. […] For co-transfection of rat α1 glycine receptor subunits, the corresponding cDNA, each subcloned in the pCIS2 expression vector (Invitrogen, San Diego, USA), was added to the suspension. To visualize transfected cells, they were co-transfected with cDNA of green fluorescent protein (GFP 10 μg ml^−1). For transfection, we used an electroporation device by EquiBio (Kent, UK).
The compounds according to the present invention under investigation were prepared as 1 M stock solution in ethanol, light-protected and stored in glass vessels at −20° C. Concentrations were calculated from the amount injected into the glass vials. Drug-containing vials were vigorously vortexed for 60 min. Glycine and picrotoxin were dissolved directly in bath solution.
Patch electrodes contained [mM] KCl 140, MgCl2 2, EGTA 11, HEPES 10, glucose 10; the bath solution contained [mM]
A tight electrical seal of several GΩ formed between the cell membrane and a patch-clamp electrode allows inward currents due to agonist-induced channel activation to resolve in the pA range. Electrical resistance of the pipettes was around 5 MΩ, corresponding to a total access resistance in the whole-cell configuration of about 10 MΩ. The compounds according to the present invention under investigation were applied to the cells via a smooth liquid filament achieved with a single outflow (glass tubing 0.15 mm inner diameter) connected to a piezo crystal. The cells were placed at the interface between this filament and the continuously flowing background solution. When a voltage pulse was applied to the piezo, the tube was moved up and down onto or away from the cell under investigation. Correct positioning of the cell in respect to the liquid filament was ensured applying a saturating (1000 μM) glycine pulse before and after each test experiment. Care was taken to ensure that the amplitude and the shape of the glycine-activated current had stabilized before proceeding with the experiment. Test solution and glycine (1000 μM) were applied via the same glass-polytetrafluoroethylen perfusion system, but from separate reservoirs. The contents of these reservoirs were mixed at a junction immediately before entering the superfusion chamber.
The compounds under test were applied alone in order to determine their direct agonistic effects. A new cell was used for each compound and each protocol, at least three different experiments were performed for each setting. The amount of the diluent ethanol corresponding to the highest compound concentration used was 34 000 μM.
For data acquisition and further analysis the inventors used the Axopatch 200B amplifier in combination with pClamp6 software (Axon Instruments, Union City, Calif., USA). Currents were filtered at 2 kHz. Fitting procedures were performed using a non-linear least-squares Marquardt-Levenberg algorithm. Details are provided in the appropriate figure legends or in the results section.
Activated currents were normalized to their own maximum response. The dose-response-curves were fitted according to (Inorm=[1+(EC50/[C])^nH]^−1), where Inorm is the current induced directly by the respective concentration [C] of the compound, normalized to the maximum inward current.

[1] = EC50 (nM), α1 homomer, initial tests, Hill fit to normalised response, rat α1 receptors in HEK 293

SMILES | EC50 [1] [nM] | nH (Hill coefficient), α1 homomer (initial tests, Hill fit to normalised response) | EC50 (EC50, further series of tests (later tests)) [nM]
CC(C)c1cc(-c2ccc(Cl)cc2)cc(C(C)C)c1O [4-(p-Cl—Ph)-propofol, 4-(para-Chlorophenyl)-propofol] | 0.2 ± 0.3 | 1.1 ± 0.5 | 
CC(C)c1cc(-c2ccc(Cl)c(F)c2)cc(C(C)C)c1O [p-(3-F,4-Cl—Ph)-propofol, Para-(3-Fluoro,4-chlorophenyl)-propofol] | 0.8 |  | 0.07
